The test system of assay [1] is Mycobacterium tuberculosis. The assay is described as follows: Antimycobacterial activity against drug-resistant Mycobacterium tuberculosis. Type of assay: functional.
Assay [2] has as its system Mycobacterium tuberculosis. The assay can be described thus: Antimycobacterial activity against extensively drug-resistant Mycobacterium tuberculosis. Type of assay: functional.

Molecules are shown by their SMILES. Values after ≈ are worked out from the molar mass of the structure shown.

Turning to `Cc1cc(/C=C/c2ccc3cc(N(C)C)ccc3[n+]2C)c(C)n1-c1ccccc1.Cc1cc(/C=C/c2ccc3cc(N(C)C)ccc3[n+]2C)c(C)n1-c1ccccc1.O=C(O)c1cc2ccccc2c(Cc2c(O)c(C(=O)O)cc3ccccc23)c1O`, the MIC99 in assay [1] was determined as 1.55 µg/mL.

For the compound `CCNC(=O)Nc1nc2nc(-c3cnc(C(C)(C)O)nc3)c(F)c([C@H]3CCCO3)c2[nH]1`, 0.08 µg/mL (≈ 0.186 µM) was the least that counted as inhibitory in assay [1] (MIC).

As for `O=[N+]([O-])c1cn2c(n1)OC[C@@H](OCc1ccc(OC(F)(F)F)cc1)C2` [PRETOMANID], inhibition of growth in assay [1] (MIC) required 0.03 µg/mL (≈ 0.0835 µM).

`C[C@@H](O)[C@H]1C(=O)N2C(C(=O)O)=C(SC3CN(C4=NCCS4)C3)[C@H](C)[C@H]12` [TEBIPENEM] showed an MIC in assay [2] of 0.3 µM (≈ 0.115 µg/mL).

The record behind these values is ChEMBL document CHEMBL5126519, “Tuberculosis drug discovery: Progression and future interventions in the wake of emerging resistance” (Eur J Med Chem, 2022).
